According to BindingDB's records for doi:10.1021/jm970389+ (Abbott Laboratories, 1998):

Assay: Binding potency against Platelet activating factor (PAF) receptor using [3H]C18-PAF as radioligand on rabbit platelet membranes

Row | SMILES | Ki
1 | CCOCCn1cc(C(=O)c2ccc(Cn3c(C)nc4cnccc43)cc2)c2c(C(=O)OC)cccc21 [1-(2-Ethoxy-ethyl)-3-[4-(2-methyl-imidazo[4,5-c]pyridin-1-ylmethyl)-benzoyl]-1H-indole-4-carboxylic acid methyl ester] | 1.1 nM
2 | COC(=O)c1cccc2c1c(C(=O)c1ccc(Cn3c(C)nc4cnccc43)cc1)cn2CC(=O)C(C)(C)C [1-(3,3-Dimethyl-2-oxo-butyl)-3-[4-(2-methyl-imidazo[4,5-c]pyridin-1-ylmethyl)-benzoyl]-1H-indole-4-carboxylic acid methyl ester] | 0.67 nM
3 | COC(=O)c1cccc2c1c(C(=O)c1ccc(Cn3c(C)nc4cnccc43)cc1)cn2C(N)=O [1-Carbamoyl-3-[4-(2-methyl-imidazo[4,5-c]pyridin-1-ylmethyl)-benzoyl]-1H-indole-4-carboxylic acid methyl ester] | 1.5 nM
4 | COC(=O)c1cccc2c1c(C(=O)c1ccc(Cn3c(C)nc4cnccc43)c(F)c1)cn2C(=O)N(C)C [1-Dimethylcarbamoyl-3-[3-fluoro-4-(2-methyl-imidazo[4,5-c]pyridin-1-ylmethyl)-benzoyl]-1H-indole-4-carboxylic acid methyl ester] | 5 nM
5 | COC(=O)c1cccc2c1c(C(=O)c1ccc(Cn3c(C)nc4c(C)nc(C)cc43)cc1)cn2C(=O)N(C)C [1-Dimethylcarbamoyl-3-[4-(2,4,6-trimethyl-imidazo[4,5-c]pyridin-1-ylmethyl)-benzoyl]-1H-indole-4-carboxylic acid methyl ester] | 120 nM
6 | COC(=O)c1cccc2c1c(C(=O)c1ccc(Cn3c(C)nc4c(=O)[nH]ccc43)cc1)cn2C(=O)N(C)C [1-Dimethylcarbamoyl-3-[4-(2-methyl-4-oxo-4,5-dihydro-imidazo[4,5-c]pyridin-1-ylmethyl)-benzoyl]-1H-indole-4-carboxylic acid methyl ester] | 4 nM
7 | COC(=O)c1cccc2c1c(C(=O)c1ccc(Cn3c(C)nc4c[n+]([O-])ccc43)cc1)cn2C(=O)N(C)C [1-Dimethylcarbamoyl-3-[4-(2-methyl-5-oxy-imidazo[4,5-c]pyridin-1-ylmethyl)-benzoyl]-1H-indole-4-carboxylic acid methyl ester] | 23 nM
8 | COC(=O)c1cccc2c1c(C(=O)c1ccc(Cn3c(C)nc4ccccc43)cc1)cn2C(=O)N(C)C [1-Dimethylcarbamoyl-3-[4-(2-methyl-benzoimidazol-1-ylmethyl)-benzoyl]-1H-indole-4-carboxylic acid methyl ester] | 0.92 nM
9 | COC(=O)c1cccc2c1c(C(=O)c1ccc(Cn3c(C)nc4ncccc43)cc1)cn2C(=O)N(C)C [1-Dimethylcarbamoyl-3-[4-(2-methyl-imidazo[4,5-b]pyridin-1-ylmethyl)-benzoyl]-1H-indole-4-carboxylic acid methyl ester] | 2.9 nM
10 | COC(=O)c1cccc2c1c(C(=O)c1ccc(Cn3c(C)nc4cccnc43)cc1)cn2C(=O)N(C)C [1-Dimethylcarbamoyl-3-[4-(2-methyl-imidazo[4,5-b]pyridin-3-ylmethyl)-benzoyl]-1H-indole-4-carboxylic acid methyl ester] | 10 nM
11 | COC(=O)c1cccc2c1c(S(=O)(=O)c1ccc(Cn3c(C)nc4cnccc43)cc1)cn2C(=O)N(C)C [1-Dimethylcarbamoyl-3-[4-(2-methyl-imidazo[4,5-c]pyridin-1-ylmethyl)-benzenesulfonyl]-1H-indole-4-carboxylic acid methyl ester] | 13 nM
12 | CCOC(=O)c1cccc2c1c(C(=O)c1ccc(Cn3c(C)nc4cnccc43)cc1)cn2C(=O)N(C)C [1-Dimethylcarbamoyl-3-[4-(2-methyl-imidazo[4,5-c]pyridin-1-ylmethyl)-benzoyl]-1H-indole-4-carboxylic acid ethyl ester] | 5.2 nM
13 | Cc1nc2cnccc2n1Cc1ccc(C(=O)c2cn(C(=O)N(C)C)c3cccc(C(=O)OC(C)C)c23)cc1 [1-Dimethylcarbamoyl-3-[4-(2-methyl-imidazo[4,5-c]pyridin-1-ylmethyl)-benzoyl]-1H-indole-4-carboxylic acid isopropyl ester] | 4.7 nM
14 | Cc1nc2cnccc2n1Cc1ccc(C(=O)c2cn(C(=O)N(C)C)c3cccc(C(=O)O)c23)cc1 [1-Dimethylcarbamoyl-3-[4-(2-methyl-imidazo[4,5-c]pyridin-1-ylmethyl)-benzoyl]-1H-indole-4-carboxylic acid] | 14 nM
15 | COC(=O)c1ccc2c(c1)c(C(=O)c1ccc(Cn3c(C)nc4cnccc43)cc1)cn2C(=O)N(C)C [1-Dimethylcarbamoyl-3-[4-(2-methyl-imidazo[4,5-c]pyridin-1-ylmethyl)-benzoyl]-1H-indole-5-carboxylic acid methyl ester] | 110 nM
16 | COC(=O)c1cc(C#Cc2ccccc2)cc2c1c(C(=O)c1ccc(Cn3c(C)nc4cnccc43)cc1)cn2C(=O)N(C)C [1-Dimethylcarbamoyl-3-[4-(2-methyl-imidazo[4,5-c]pyridin-1-ylmethyl)-benzoyl]-6-phenylethynyl-1H-indole-4-carboxylic acid methyl ester] | 0.95 nM
17 | COC(=O)c1cccc2c1c(C(=O)C1CCC(Cn3c(C)nc4cnccc43)CC1)cn2C(=O)N(C)C (stereo not drawn) [1-Dimethylcarbamoyl-3-[4-(2-methyl-imidazo[4,5-c]pyridin-1-ylmethyl)-cyclohexanecarbonyl]-1H-indole-4-carboxylic acid methyl ester] | 2.4 nM

Row | SMILES | Ki
18 | COC(=O)c1cccc2c1c(C(=O)c1ccc(Cn3ccc4nc(C)nc-4c3)cc1)cn2C(=O)N(C)C [1-Dimethylcarbamoyl-3-[4-(2-methyl-imidazo[4,5-c]pyridin-5-ylmethyl)-benzoyl]-1H-indole-4-carboxylic acid methyl ester] | > 1000 nM
19 | COC(=O)c1cccc2c1c(C(=O)CCCCn1c(C)nc3cnccc31)cn2C(=O)N(C)C [1-Dimethylcarbamoyl-3-[5-(2-methyl-imidazo[4,5-c]pyridin-1-yl)-pentanoyl]-1H-indole-4-carboxylic acid methyl ester] | 11 nM
20 | COC(=O)c1cccc2c1c(C(=O)c1ccc(Cn3c(C)nc4cnccc43)s1)cn2C(=O)N(C)C [1-Dimethylcarbamoyl-3-[5-(2-methyl-imidazo[4,5-c]pyridin-1-ylmethyl)-thiophene-2-carbonyl]-1H-indole-4-carboxylic acid methyl ester] | 8.2 nM
21 | COC(=O)c1cccc2c1c(C(=O)CCCCCn1c(C)nc3cnccc31)cn2C(=O)N(C)C [1-Dimethylcarbamoyl-3-[6-(2-methyl-imidazo[4,5-c]pyridin-1-yl)-hexanoyl]-1H-indole-4-carboxylic acid methyl ester] | 6.1 nM
22 | COC(=O)c1cccc2c1c(C(=O)CCCCCCn1c(C)nc3cnccc31)cn2C(=O)N(C)C [1-Dimethylcarbamoyl-3-[7-(2-methyl-imidazo[4,5-c]pyridin-1-yl)-heptanoyl]-1H-indole-4-carboxylic acid methyl ester] | 9.4 nM
23 | COC(=O)c1cccc2c1c(C(=O)Cc1ccc(-n3c(C)nc4cnccc43)cc1)cn2C(=O)N(C)C [1-Dimethylcarbamoyl-3-{2-[4-(2-methyl-imidazo[4,5-c]pyridin-1-yl)-phenyl]-acetyl}-1H-indole-4-carboxylic acid methyl ester] | 0.63 nM
24 | COC(=O)c1cc(-c2ccc(F)cc2)cc2c1c(C(=O)c1ccc(Cn3c(C)nc4cnccc43)cc1)cn2C(=O)N(C)C [1-Dimethylcarbamoyl-6-(4-fluoro-phenyl)-3-[4-(2-methyl-imidazo[4,5-c]pyridin-1-ylmethyl)-benzoyl]-1H-indole-4-carboxylic acid methyl ester] | 0.15 nM
25 | COC(=O)c1cccc2c1c(C(=O)c1ccc(Cn3c(C)nc4cnccc43)cc1)cn2CC(=O)N(C)C [1-Dimethylcarbamoylmethyl-3-[4-(2-methyl-imidazo[4,5-c]pyridin-1-ylmethyl)-benzoyl]-1H-indole-4-carboxylic acid methyl ester] | 4.4 nM
26 | COC(=O)c1cccc2c1c(C(=O)c1ccc(Cn3c(C)nc4cnccc43)cc1)cn2S(=O)(=O)N(C)C [1-Dimethylsulfamoyl-3-[4-(2-methyl-imidazo[4,5-c]pyridin-1-ylmethyl)-benzoyl]-1H-indole-4-carboxylic acid methyl ester] | 4.3 nM
27 | COC(=O)c1cccc2c1c(C(=O)c1ccc(Cn3c(C)nc4cnccc43)cc1)cn2C(C)C [1-Isopropyl-3-[4-(2-methyl-imidazo[4,5-c]pyridin-1-ylmethyl)-benzoyl]-1H-indole-4-carboxylic acid methyl ester] | 1.3 nM
28 | CNC(=O)n1cc(C(=O)c2ccc(Cn3c(C)nc4cnccc43)cc2)c2c(C(=O)OC)cccc21 [1-Methylcarbamoyl-3-[4-(2-methyl-imidazo[4,5-c]pyridin-1-ylmethyl)-benzoyl]-1H-indole-4-carboxylic acid methyl ester] | 1.5 nM
29 | CCOCCn1cc(C(=O)CN2CCC(n3c(C)nc4cnccc43)CC2)c2c(Cl)cccc21 [1-[4-Chloro-1-(2-ethoxy-ethyl)-1H-indol-3-yl]-2-[4-(2-methyl-imidazo[4,5-c]pyridin-1-yl)-piperidin-1-yl]-ethanone] | 15 nM
30 | COC(=O)c1cccc2c1c(C(=O)c1ccc(Cn3c(C)nc4ccccc43)cc1)cn2C(=O)N1CCCC1 [3-[4-(2-Methyl-benzoimidazol-1-ylmethyl)-benzoyl]-1-(pyrrolidine-1-carbonyl)-1H-indole-4-carboxylic acid methyl ester] | 1.7 nM
31 | Cc1nc2cnccc2n1Cc1ccc(S(=O)(=O)c2cn(C(=O)N(C)C)c3ccccc23)cc1 [3-[4-(2-Methyl-imidazo[4,5-c]pyridin-1-ylmethyl)-benzenesulfonyl]-indole-1-carboxylic acid dimethylamide] | 12 nM
32 | COC(=O)c1cccc2c1c(C(=O)c1ccc(Cn3c(C)nc4cnccc43)cc1)cn2S(=O)(=O)C(C)C [3-[4-(2-Methyl-imidazo[4,5-c]pyridin-1-ylmethyl)-benzoyl]-1-(propane-2-sulfonyl)-1H-indole-4-carboxylic acid methyl ester] | 0.19 nM
33 | COC(=O)c1cccc2c1c(C(=O)c1ccc(Cn3c(C)nc4cnccc43)cc1)cn2C(=O)N1CCCC1 [3-[4-(2-Methyl-imidazo[4,5-c]pyridin-1-ylmethyl)-benzoyl]-1-(pyrrolidine-1-carbonyl)-1H-indole-4-carboxylic acid methyl ester] | 11 nM
